A short description of this data set: Human HepG2 cell viability assay in 384 well format. As to conditions: HepG2 cells, read-out: Inhibition. On the set-up: dose 125 nL, time 70.5 hour; cytotoxicity at 70.5 h: concentration not given beside the values. It is filed as toxicity, cell-based.

For the compound `Cc1nncn1CCN1C(=O)CC2(CCCC2)CC1=O`, the cytotoxicity at 70.5 h was -7.54%.

Take `COc1ccccc1OCCCN1CC=C(c2cnn(C)c2)CC1`: the cytotoxicity at 70.5 h was -2.62%.

Consider `CCCN1C[C@H]2CC[C@@H]1CN(c1nnc(C(C)C)s1)C2`, for which the cytotoxicity at 70.5 h was 27.1%.

Take `CCc1noc(CN(CC)C(=O)CC2C(=O)NCCN2CC=C(C)C)n1` (stereo not given): the cytotoxicity at 70.5 h was 1.29%.

On to `COCCCN1CCN([C@@H]2c3ccccc3C3(CCNCC3)[C@H]2O)CC1`, for which the cytotoxicity at 70.5 h was found to be 0.267%.

In the case of `OC1CN(Cc2ccccc2)CCN(c2ccncc2)C1` (stereo not given), the cytotoxicity at 70.5 h was 11.5%.

`CC(C)N1CCC(CC(=O)N2CCCCC2CCn2cccn2)CC1` (stereo not given): the cytotoxicity at 70.5 h was -10.4%.

`COc1cccc(OC)c1C(=O)N1C[C@@H](CN(C)C)[C@@H](CO)C1`: the cytotoxicity at 70.5 h was -2.79%.

On to `CCCc1ccc(CN2CCC3(CCC(=O)N(C)CC3)CC2)o1`, for which the cytotoxicity at 70.5 h is 17.3%.

Regarding `O=C1CC2(CCCC2)CC(=O)N1Cc1nc2ncccn2n1`, the cytotoxicity at 70.5 h amounted to 1.37%.

Take `O=C1CC2(CCCC2)CC(=O)N1Cc1nccs1`: the cytotoxicity at 70.5 h was -1.44%.

Take `COc1cccc(N2CCC(N3C[C@@H](NC(C)=O)[C@H](C(C)C)C3)CC2)c1`: the cytotoxicity at 70.5 h is -6.54%.

For `FC(F)(F)CCc1ccnc(NC2CCOC2)n1` (stereo not given), the cytotoxicity at 70.5 h was 27.9%.

Regarding `COC[C@@H]1CCCN1C(=O)c1cc(-c2cccc(OC)c2)n[nH]1`, the cytotoxicity at 70.5 h was -2.07%.

`CSCC[C@H](NC(C)=O)c1nc(CCc2ccccc2)n[nH]1`: the cytotoxicity at 70.5 h is -3.53%.

With `CCC[C@H]1CN(CCS(C)(=O)=O)C[C@@H]1NC(=O)c1cc[nH]n1`, the cytotoxicity at 70.5 h is -16%.

For the compound `CCCOC(C)C(=O)NCc1cc2n(n1)CCCN(C1CCCCC1)C2` (stereo not given), the cytotoxicity at 70.5 h was 0.0071%.

Take `CCn1ccnc1CN1CCC(Oc2cccc(F)c2)(C(=O)O)CC1`: the cytotoxicity at 70.5 h was -4.69%.

Turning to `CN(CC1CCOCC1)C(C(=O)O)c1cccc(F)c1F` (stereo not given), the cytotoxicity at 70.5 h stood at 0.34%.

As to `Cc1nc2c(c(N(C)C)n1)CCN(C(=O)CN1CCC(O)CC1)C2`, the cytotoxicity at 70.5 h was -6.35%.

Take `CCNc1ncc(C(=O)NCc2csc(-c3cnccn3)n2)cn1`: the cytotoxicity at 70.5 h is -10.4%.

With `Cc1ccc(CC2COc3ccccc3C2)c(N)n1` (stereo not given), the cytotoxicity at 70.5 h is 16.3%.

Regarding `CC(C)NS(=O)(=O)c1cc(C(=O)O)cc(-c2ccc3c(c2)OCCO3)c1`, the cytotoxicity at 70.5 h is -8.82%.

In the case of `CN(C)CC(C)(C)Cn1cnc(-c2ccccc2)c1-c1cccc(O)c1`, the cytotoxicity at 70.5 h was -10.8%.

On to `CCCn1ccnc1CN1CCC(O)(CN2CCCCC2)C1` (stereo not given), for which the cytotoxicity at 70.5 h is -4.35%.

Turning to `CCc1ncc(CN2CCC(Oc3ccccc3OC)CC2)cn1`, the cytotoxicity at 70.5 h was -0.00137%.

As for `CN(CCc1ncnn1C1Cc2ccccc2C1)C1CCS(=O)(=O)C1` (stereo not given), the cytotoxicity at 70.5 h was -11.8%.

As for `CC(C)n1ccnc1CN1CCOC(CCc2ccccc2)C1` (stereo not given), the cytotoxicity at 70.5 h is -13.7%.

Consider `COc1ccc(-c2cc(CN)ccc2F)c(OC)c1OC`, for which the cytotoxicity at 70.5 h is 6.26%.

As for `Cc1ccccc1Oc1ncccc1CNC1CCC1`, the cytotoxicity at 70.5 h was 1.33%.

Regarding `O=C(CCCn1cnnn1)N1CCC(c2ccncc2)CC1`, the cytotoxicity at 70.5 h came out at 22.6%.

Take `Cc1ccc(C2(C(=O)N3CCC(n4cc(C(C)O)nn4)CC3)CC2)cc1` (stereo not given): the cytotoxicity at 70.5 h is -7.08%.

On to `Cc1ccc(N2C[C@@H](CN3CCOCC3)[C@@H](CO)C2)nn1`, for which the cytotoxicity at 70.5 h was -16.8%.

As for `COc1cc(N2CCCC(c3nccn3Cc3ccncc3)C2)ncn1` (stereo not given), the cytotoxicity at 70.5 h was -6.57%.

Consider `CSCCNC(=O)c1coc(COc2ccc(F)cc2)n1`, for which the cytotoxicity at 70.5 h came out at 7.74%.

Regarding `CCc1ccccc1OCCN(C)C(=O)CCN1CCCCO1`, the cytotoxicity at 70.5 h was -7.24%.

Turning to `Cc1ccnc(NCCNC(=O)c2ccccc2NCC(=O)O)c1`, the cytotoxicity at 70.5 h is 5.62%.

`CCCc1nc(N(C)Cc2cnc(NC)nc2)c2cnn(C)c2n1`: the cytotoxicity at 70.5 h worked out at 8.94%.

As to `CCc1ccc(NC(=O)CCN2CC(n3nc(C)cc3C)C2)cc1`, the cytotoxicity at 70.5 h was -1.14%.

`NCCn1cc(C(=O)NCc2ccccc2Cn2cccn2)nn1`: the cytotoxicity at 70.5 h is -6.05%.

Regarding `N#Cc1ccccc1CN1C[C@H]2CC[C@@H]1CN(C(=O)c1cccnc1)C2`, the cytotoxicity at 70.5 h was -10.2%.

On to `CCC(C(=O)N(C)C)n1ccc2ncccc2c1=O` (stereo not given), for which the cytotoxicity at 70.5 h is -13.2%.

As to `CC(C)c1nc(Cn2cncn2)n(-c2ccccn2)n1`, the cytotoxicity at 70.5 h was -4.77%.

For the compound `O=C(CCn1ccnc1)N1CC[C@@H](c2ccc3ccccc3c2)[C@H](O)C1`, the cytotoxicity at 70.5 h worked out at 4.4%.

On to `CN1CCC(c2ncc3c(n2)CCN(C(=O)CC2C=CCC2)C3)CC1` (stereo not given), for which the cytotoxicity at 70.5 h is -7.45%.

On to `CC(=O)N1C[C@@H](c2ccsc2)[C@@H]2CN(Cc3ccccc3)CC[C@@H]21`, for which the cytotoxicity at 70.5 h was -10.8%.

As to `CC(=O)N1C[C@@H](c2ccsc2)[C@@H]2CN(Cc3cccc(Cl)c3)CC[C@@H]21`, the cytotoxicity at 70.5 h amounted to 8.95%.

Take `CCc1nccn1-c1cncc(C2CCCN2Cc2cccnc2)n1` (stereo not given): the cytotoxicity at 70.5 h is -5.1%.

On to `COc1ccccc1CC(=O)N1CC[C@@]2(CCCO2)[C@@H](OC)C1`, for which the cytotoxicity at 70.5 h came to 25.6%.

On to `CCCc1cc(C(=O)N2CCOC(c3nc(-c4cccs4)no3)C2)no1` (stereo not given), for which the cytotoxicity at 70.5 h was determined as 1.76%.

`Cc1nccn1-c1cccc(C2CCCN2S(=O)(=O)c2cn(C)cn2)n1` (stereo not given): the cytotoxicity at 70.5 h is 31.6%.

For `Cc1nc(CN2CCCC(NCc3cccc4ccccc34)C2)no1` (stereo not given), the cytotoxicity at 70.5 h stood at 27.7%.

With `Cc1nc(C)n(C2CCCN(C(=O)CCOC(C)C)C2)n1` (stereo not given), the cytotoxicity at 70.5 h was 10.2%.

As to `COc1c(C2CCCN2C(=O)c2scnc2C)c(C)nn1C` (stereo not given), the cytotoxicity at 70.5 h is -10.9%.

As for `Cc1nc(C)n(C2CCCN(C(=O)COc3cccc(C#N)c3)C2)n1` (stereo not given), the cytotoxicity at 70.5 h was -20.2%.

`CC(C)c1nc(C2CCCN2Cc2ccncc2Cl)no1` (stereo not given): the cytotoxicity at 70.5 h is -11.2%.

Turning to `Cc1nc(CN2CCCC(NCc3ccc(Cl)s3)C2)no1` (stereo not given), the cytotoxicity at 70.5 h is -13%.

Take `COc1c(C2CCCN2C(=O)c2cnc(C)cn2)c(C)nn1C` (stereo not given): the cytotoxicity at 70.5 h came out at 10.6%.

In the case of `Cc1cccc(C(=O)NCc2ccc(CS(N)(=O)=O)cc2)n1`, the cytotoxicity at 70.5 h was -16.5%.

Turning to `CN(C)C(=O)C1CCN(Cn2nc(-c3ccc(F)cc3)oc2=O)CC1`, the cytotoxicity at 70.5 h is -5.92%.

Consider `CNC(=O)COc1cccc(CNC(=O)c2c(C)noc2C(C)C)c1`, for which the cytotoxicity at 70.5 h was -13.2%.

On to `O=c1oc(-c2ccc(F)cc2)nn1CN1CCN(CC2CC2)CC1`, for which the cytotoxicity at 70.5 h was -21.3%.

As for `Cc1cccc(-c2nc(C)nn2CC(=O)NC(C)C)c1`, the cytotoxicity at 70.5 h is 18.6%.

On to `CC1CN(Cc2cnn(C)c2)CCN1c1ccc2nncn2n1` (stereo not given), for which the cytotoxicity at 70.5 h is -14.4%.

On to `Cc1nnc2n1CCN(C(=O)c1cc3cc(F)ccc3[nH]1)C2`, for which the cytotoxicity at 70.5 h was -12.8%.

On to `Cc1nc(CN2CCCC(NCc3csc(C(C)(C)C)n3)C2)no1` (stereo not given), for which the cytotoxicity at 70.5 h is -6.65%.

`CC(C)c1nnc2n1CCN(C(=O)c1cc3cc(F)ccc3[nH]1)C2`: the cytotoxicity at 70.5 h was -16.2%.

For `CN1CCN(C2CCN(CCOc3cccc(F)c3)CC2)C1=O`, the cytotoxicity at 70.5 h is -13%.

In the case of `CCc1nc(CC(=O)N2CCCC2c2c(C)nn(C)c2OC)cs1` (stereo not given), the cytotoxicity at 70.5 h is -8.39%.

As for `COc1ncc(C2(O)CCN(Cc3c(F)cccc3F)CC2)c(OC)n1`, the cytotoxicity at 70.5 h worked out at 31.4%.

For the origin of these results see ChEMBL document CHEMBL3507680, “University of Dundee, Gates Library screen for HepG2 cell viability”.
